The values that follow come from patent publication US20080300298A1, “Honokiol Derivates For the Treatment of Proliferative Disorders” (priority 2005, published 2008).

One data set has as its system SU-DHL-4 cells. Description: induction of apoptosis. Type of data set: cell-based. Conditions: cells resistant to doxorubicin and As2O3-induced apoptosis; without activation of caspase 3. The source says:
However, in contrast to the complete block of As2O3-induced apoptosis by z-VAD-fmk, inhibition of HNK-induced apoptosis by z-VAD-fmk was only partial, evidenced by PARP cleavage and APO2.7 assay (FIGS. 7B and D).
HNK induces apoptosis in SU-DHL4 cells, which express low levels of caspase-8 and -3 and are resistant to doxorubicin, As2O3, melphalan, dexamethasone, bortezomib (Chauhan et al. Cancer Res. 2003; 63:6174-6177), and revlimid. Therefore, agents such as HNK which kill MM cells via both caspase-dependent and caspase-independent pathways may be particularly useful to overcome drug resistance.

Another data set deals with MM.1S cells. In words: combination with bortezomib. Type of data set: cell-based, human. The protocol:
Assessment of HNK-induced cytotoxicity against patient MM cells: Cytotoxicity of HNK against fresh MM cells was determined as previously determined, see, for example, Mitsiades et al Cancer Cell. 2004; 5:221-230. Fresh MNCs separated from bone marrow samples derived from patients with MM were incubated with PE-conjugated anti-CD138 antibody and/or FITC-conjugated anti-CD38 antibody (BD Biosciences, San Diego, Calif.) for 30 minutes on ice and washed, followed by analysis using EPICS XL flow cytometer (Beckman Coulter, Hialeah, Fla.). A CD38^high fraction enriched for MM cells was determined in side and forward scatter panel in each case. The expression of CD138 on gated cells was also evaluated. After HNK-treatment for 48 h, cells were harvested and percentage of CD38^high cells with or without HNK-treatment was evaluated. […] Cells were stained with propidium iodide (PI; 50 μg/mL; Sigma, St Louis, Mo.), and cell cycle profile was determined by using the program M software on an EPICS XL flow cytometer (Beckman Coulter, Hialeah, Fla.). […] Fluorescence intensity of TUNEL and APO 2.7 staining was determined using on EPICS XL flow cytometer. Cytotoxicity was determined by trypan blue exclusion assay. […] Cell growth and induction of apoptosis were determined both by colorimetric assay and now cytometric detection of APO2.7 after 48 h treatment. […] DNA synthesis was measured by [^3H]-thymidine uptake. […]

Another data set relates to SVR cells. In words: apoptosis of SVR cells. Type of data set: cell-based. Conditions: 18 and 48 h. As for the experimental part:
FIG. 13 illustrates the effect of honokiol and magnolol on apoptosis. The light columns represent SVR cells treated with magnolol, and the dark columns represent SVR cells treated with honokiol. The control lanes represent cells immediately after treatment compared with 18 and 48 h of treatment.

A further data set has as its system JNK in CH12.LX cells. In words: JNK phosphorylation (Western blotting). Type of data set: cell-based, mouse. As to conditions: CH12.LX cells transfected with hCD40-LMP1. From the text:
The cells were pelleted by centrifugation, lysed and analyzed by SDS PAGE and Western blotting. Peroxidase-labeled antibodies were visualized on Western blots using a chemilluminescent detection reagent to assay for JNK phosphorylation.

As for `C=CCc1ccc(O)c(-c2ccc(O)c(CC=C)c2)c1` [HNK, Honokiol], in the data set with SU-DHL-4 cells, the “apoptosis in SU-DHL-4 cells” value was “induced apoptosis in SU-DHL-4 cells”. The “Bortezomib-induced up-regulation of Hsp27, p-Hsp27 and Hsp70” value in the data set with MM.1S cells (8 h, Western blotting) is given as “significantly blocked”. The “cytotoxicity and apoptosis of combined treatment with bortezomib” value in the data set on MM.1S cells (HNK and bortezomib, 48 h) was “enhanced the cytotoxicity and induction of apoptosis compared to each drug alone”. Besides, the “induction of apoptosis compared with magnolol” value in the data set on SVR cells is “more effective in the induction of apoptosis than magnolol”. Also, the JNK phosphorylation entry in the data set on JNK in CH12.LX cells was “inhibited by honokiol in a dose dependent manner”.
